From patent US11339193B2, “CDP protein secretion inhibitors” (KEZAR LIFE SCIENCES, priority 2018, dated 2022)
pEC50, pIC50: −log10 of the molar value. Numbered stars: 1 amine (or outer) side, 2 acyl side, 3 side chain; on linkers, the order of the positions; unused ones are H or OH. Square brackets hold non-standard residues; d marks the D form. Peptide text beside a SMILES is read from it. Butanoyl(2R-oxy,4-CN) = N#CCC[C@@H](O)C(=O)O; X22 = CCCC[C@@H](C)C[C@H](N[*:1])C(=O)[*:2]; Abu(4,4,4-F3) = N[C@@H](CC(F)(F)F)C(=O)O; NMeAla(cPent) = CN[C@@H](CC1CCCC1)C(=O)O; Ala(cPent) = N[C@@H](CC1CCCC1)C(=O)O; NMeCha = CN[C@@H](CC1CCCCC1)C(=O)O; NMeF = CN[C@@H](Cc1ccccc1)C(=O)O; tBuAla = CC(C)(C)C[C@H](N)C(=O)O; NMeL = CN[C@@H](CC(C)C)C(=O)O; NMeA = CN[C@@H](C)C(=O)O; Nva = CCC[C@H](N)C(=O)O; dLac = C[C@@H](O)C(=O)O; Abu = CC[C@H](N)C(=O)O

Legend:
Type in all cases: cell-based
[1] = test system: TNFα-FL/Gaussia Luciferase; assay: Dox induced TNFα-FL-Gluc assay; conditions: Flp-In 293 T-REx cells, doxycycline, 24 hours; read-out: TNFa FL Gluc IC50
Source text: Dox Induced TNFα-FL-Gluc Assay
(§1) Flp-In 293 T-REx™ cells were transfected with pcDNA™5/FRT/TO plasmid inserted with cDNA encoding Gaussia Luciferase fused to the 3′ end of cDNA encoding full length TNFα (amino acids 1-233). Transfected cells were selected for resistance to the selectable markers Hygromycin and Blasticidin to create a stable cell line that contained the TNFα-FL/Gaussia Luciferase cDNA insert whose expression was regulated under the T-REx™ system. The day before assay, cells were trypsinized and plated in 384-well tissue culture plates. The next day, compound dilutions in DMSO/media containing doxycycline were added to the wells and incubated at 37° C., 5% CO2.

[2] = test system: PD1-ss+10aa/Gaussia Luciferase; assay: Dox induced PD1-ss-Gluc assay; conditions: Flp-In 293 T-REx cells, doxycycline, 24 hours; read-out: PD1ss Gluc IC50
Source text: Dox Induced PD1-ss-Gluc Assay
as §1, with “PD1 signal sequence plus 10 amino” for “full length TNFα (amino”, “(N-[…]-C) (SEQ ID NO:3).” for “1-233).”, “PD1-ss+10aa/Gaussia” for “TNFα-FL/Gaussia”

[3] = test system: NCI-H929 multiple myeloma cell line; assay: H929 assay (cell viability, Celltiter-Glo); conditions: Homo sapiens, NCI-H929; 48 hours, cell viability; read-out: H929 EC50
Description: The human multiple myeloma cell line NCI-H929 was cultured in Advanced RPMI 1640 media (Gibco@) supplemented with 6% fetal bovine serum, 2 mM Glutamine, and 1× Penicillin/Streptomycin. On the day of assay, cells were resuspended in RPMI 1640 media supplemented with 10% fetal bovine serum, 2 mM Glutamine, and 1× Penicillin/Streptmycin and plated in 384-well tissue culture plates and treated with compound dilutions in DMSO/media. Plates were incubated at 37° C., 5% CO2 for 48 hours. After 48 hours, Celltiter-Glo@ (Promega) was added to each well and luciferase signal was quantified using Tecan Infinite M1000 Pro for cell viability determination.

CCCC[C@@H](C)C[C@@H]1NC(=O)[C@H](CC2CCCCC2)N(C)C(=O)[C@H](CC(C)C)NC(=O)[C@H](CC(C)C)N(C)C(=O)[C@H](CC(C)(C)C)NC(=O)C(CCC#N)OC(=O)[C@H](C)N(C)C1=O (stereo in doubt) [C-52]
pIC50 [1]: 5.24 | pIC50 [2]: 6.12

CCCC[C@@H](C)C[C@@H]1NC(=O)[C@@H](C)OC(=O)[C@H](C)N(C)C(=O)[C@H](C(C)C)NC(=O)[C@H](Cc2ccccc2)N(C)C(=O)[C@H](CC(C)C)NC(=O)[C@H](CC(C)C)N(C)C1=O [C-02] (HELM PEPTIDE1{L.[meF].V.[meA].[C[C@@H](O[*:1])C(=O)[*:2]].[CCCC[C@@H](C)C[C@H](N[*:1])C(=O)[*:2]].[meL]}$PEPTIDE1,PEPTIDE1,1:R1-7:R2$$$V2.0)
pIC50 [1]: 6.11 | pIC50 [2]: 6.34 | pEC50 [3]: 5.39

CCCC[C@@H](C)C[C@@H]1NC(=O)[C@H](Cc2ccccc2)N(C)C(=O)[C@H](CC(C)C)NC(=O)[C@H](CC(C)C)N(C)C(=O)[C@H](CC(F)(F)F)NC(=O)[C@@H](C)OC(=O)[C@H](C)N(C)C1=O [C-03] (cyclo(L[NMeF][X22][NMeA][dLac][Abu(4,4,4-F3)][NMeL]))
pIC50 [1]: 6.28 | pIC50 [2]: 6.41 | pEC50 [3]: 5.30

CCCC[C@@H](C)C[C@@H]1NC(=O)[C@H](Cc2ccccc2)N(C)C(=O)[C@H](CCC)NC(=O)[C@H](CC(C)C)N(C)C(=O)[C@H](C[C@H](C)CCCC)NC(=O)[C@@H](C)OC(=O)[C@H](C)N(C)C1=O [C-04] (cyclo([NMeA][dLac][X22][NMeL][Nva][NMeF][X22]))
pIC50 [1]: 6.98 | pIC50 [2]: 7.07 | pEC50 [3]: 5.90

CCCC[C@@H](C)C[C@@H]1NC(=O)[C@H](Cc2ccccc2)N(C)C(=O)[C@H](CC)NC(=O)[C@H](CC(C)C)N(C)C(=O)[C@H](C[C@H](C)CCCC)NC(=O)[C@@H](C)OC(=O)[C@H](C)N(C)C1=O [C-05] (cyclo([Abu][NMeF][X22][NMeA][dLac][X22][NMeL]))
pIC50 [1]: 6.94 | pIC50 [2]: 7.12 | pEC50 [3]: 5.93

CCCC[C@@H](C)C[C@@H]1NC(=O)[C@H](Cc2ccccc2)N(C)C(=O)[C@H](CC(C)C)NC(=O)[C@H](CC(C)C)N(C)C(=O)[C@H](CC)NC(=O)[C@@H](C)OC(=O)[C@H](C)N(C)C1=O [C-06] (HELM PEPTIDE1{[Abu].[meL].L.[meF].[CCCC[C@@H](C)C[C@H](N[*:1])C(=O)[*:2]].[meA].[C[C@@H](O[*:1])C(=O)[*:2]]}$PEPTIDE1,PEPTIDE1,1:R1-7:R2$$$V2.0)
pEC50 [3]: 5.17

CCCC[C@@H](C)C[C@@H]1NC(=O)[C@H](Cc2ccccc2)N(C)C(=O)[C@H](CC(C)C)NC(=O)[C@H](CC(C)C)N(C)C(=O)[C@H](C(C)C)NC(=O)[C@@H](C)OC(=O)[C@H](C)N(C)C1=O [C-07] (HELM PEPTIDE1{L.[meF].[CCCC[C@@H](C)C[C@H](N[*:1])C(=O)[*:2]].[meA].[C[C@@H](O[*:1])C(=O)[*:2]].V.[meL]}$PEPTIDE1,PEPTIDE1,1:R1-7:R2$$$V2.0)
pIC50 [1]: 5.90 | pIC50 [2]: 6.18 | pEC50 [3]: 5.26

CCCC[C@@H](C)C[C@@H]1NC(=O)[C@H](Cc2ccccc2)N(C)C(=O)[C@H](CC(C)C)NC(=O)[C@H](CC(C)C)N(C)C(=O)[C@H](CC(C)C)NC(=O)[C@@H](C)OC(=O)[C@H](C)N(C)C1=O [C-08] (HELM PEPTIDE1{L.[meF].[CCCC[C@@H](C)C[C@H](N[*:1])C(=O)[*:2]].[meA].[C[C@@H](O[*:1])C(=O)[*:2]].L.[meL]}$PEPTIDE1,PEPTIDE1,1:R1-7:R2$$$V2.0)
pIC50 [1]: 6.28 | pIC50 [2]: 6.44 | pEC50 [3]: 5.35

CCCC[C@@H](C)C[C@@H]1NC(=O)[C@H](Cc2ccccc2)N(C)C(=O)[C@H](CC(C)C)NC(=O)[C@H](CC(C)C)N(C)C(=O)[C@H](CC(F)(F)F)NC(=O)[C@@H](CCC#N)OC(=O)[C@H](C)N(C)C1=O [C-09] (cyclo(L[NMeF][X22][NMeA][Butanoyl(2R-oxy,4-CN)][Abu(4,4,4-F3)][NMeL]))
pIC50 [1]: 6.80 | pIC50 [2]: 6.94 | pEC50 [3]: 5.74

CCCC[C@@H](C)C[C@@H]1NC(=O)[C@H](CC2CCCCC2)N(C)C(=O)[C@H](CC(C)C)NC(=O)[C@H](CC(C)C)N(C)C(=O)[C@H](C[C@H](C)CCCC)NC(=O)[C@@H](CCC#N)OC(=O)[C@H](C)N(C)C1=O [C-18] (cyclo(L[NMeCha][X22][NMeA][Butanoyl(2R-oxy,4-CN)][X22][NMeL]))
pIC50 [1]: 7.08 | pIC50 [2]: 7.43 | pEC50 [3]: 6.37

CCCC[C@@H](C)C[C@@H]1NC(=O)[C@H](CC2CCCCC2)N(C)C(=O)[C@H](CC(C)C)NC(=O)[C@H](CC(C)C)N(C)C(=O)[C@H](CCC)NC(=O)[C@@H](CCC#N)OC(=O)[C@H](C)N(C)C1=O [C-19] (cyclo(L[NMeCha][X22][NMeA][Butanoyl(2R-oxy,4-CN)][Nva][NMeL]))
pIC50 [1]: 5.86 | pIC50 [2]: 6.43 | pEC50 [3]: 5.29

CCCC[C@@H](C)C[C@@H]1NC(=O)[C@H](CC2CCCCC2)N(C)C(=O)[C@H](CC(C)C)NC(=O)[C@H](CC(C)C)N(C)C(=O)[C@H](C(C)C)NC(=O)[C@@H](CCC#N)OC(=O)[C@H](C)N(C)C1=O [C-20] (cyclo(L[NMeCha][X22][NMeA][Butanoyl(2R-oxy,4-CN)]V[NMeL]))
pIC50 [1]: 5.77 | pIC50 [2]: 6.36 | pEC50 [3]: 5.28

CCCC[C@@H](C)C[C@@H]1NC(=O)[C@H](CC2CCCCC2)N(C)C(=O)[C@H](CC(C)C)NC(=O)[C@H](CC(C)C)N(C)C(=O)[C@H](CC(C)C)NC(=O)[C@@H](CCC#N)OC(=O)[C@H](C)N(C)C1=O [C-21] (cyclo(L[NMeCha][X22][NMeA][Butanoyl(2R-oxy,4-CN)]L[NMeL]))
pIC50 [1]: 6.15 | pIC50 [2]: 6.67 | pEC50 [3]: 5.47

CCCC[C@@H](C)C[C@@H]1NC(=O)[C@H](CC2CCCC2)N(C)C(=O)[C@H](CC(C)C)NC(=O)[C@H](CC(C)C)N(C)C(=O)[C@H](C[C@H](C)CCCC)NC(=O)[C@@H](CCC#N)OC(=O)[C@H](C)N(C)C1=O [C-22] (cyclo(L[NMeAla(cPent)][X22][NMeA][Butanoyl(2R-oxy,4-CN)][X22][NMeL]))
pIC50 [1]: 6.63 | pIC50 [2]: 6.94 | pEC50 [3]: 6.02

CCCC[C@@H](C)C[C@@H]1NC(=O)[C@H](CC2=CCCC2)N(C)C(=O)[C@H](CC(C)C)NC(=O)[C@H](CC(C)C)N(C)C(=O)[C@H](C[C@H](C)CCCC)NC(=O)[C@@H](CCC#N)OC(=O)[C@H](C)N(C)C1=O [C-23]
pIC50 [1]: 7.06 | pIC50 [2]: 7.18 | pEC50 [3]: 6.02

CCCC[C@@H](C)C[C@@H]1NC(=O)[C@@H](CCC#N)OC(=O)[C@H](C)N(C)C(=O)[C@H](CC)NC(=O)[C@H](Cc2ccccc2)N(C)C(=O)[C@H](CC(C)C)NC(=O)[C@H](CC(C)C)N(C)C1=O [C-25] (HELM PEPTIDE1{[Abu].[meA].[N#CCC[C@@H](O[*:1])C(=O)[*:2]].[CCCC[C@@H](C)C[C@H](N[*:1])C(=O)[*:2]].[meL].L.[meF]}$PEPTIDE1,PEPTIDE1,1:R1-7:R2$$$V2.0)
pIC50 [1]: 6.42 | pIC50 [2]: 6.53 | pEC50 [3]: 5.63

CCCC[C@@H](C)C[C@@H]1NC(=O)[C@@H](CCC#N)OC(=O)[C@H](C)N(C)C(=O)[C@H](CC(F)(F)F)NC(=O)[C@H](Cc2ccccc2)N(C)C(=O)[C@H](CC(C)C)NC(=O)[C@H](CC(C)C)N(C)C1=O [C-26] (cyclo(L[NMeF][Abu(4,4,4-F3)][NMeA][Butanoyl(2R-oxy,4-CN)][X22][NMeL]))
pIC50 [1]: 7.04 | pIC50 [2]: 7.23 | pEC50 [3]: 6.00

CCCC[C@@H](C)C[C@@H]1NC(=O)[C@H](CC2CCCCC2)N(C)C(=O)[C@H](CC2CCCC2)NC(=O)[C@H](CC(C)C)N(C)C(=O)[C@H](CC(C)C)NC(=O)[C@@H](CCC#N)OC(=O)[C@H](C)N(C)C1=O [C-54] (cyclo([Ala(cPent)][NMeCha][X22][NMeA][Butanoyl(2R-oxy,4-CN)]L[NMeL]))
pIC50 [2]: 5.67

CCCC[C@@H](C)C[C@@H]1NC(=O)[C@H](CC2CCCCC2)N(C)C(=O)[C@H](CC(C)(C)C)NC(=O)[C@H](CC(C)C)N(C)C(=O)[C@H](CC(C)C)NC(=O)[C@@H](CCC#N)OC(=O)[C@H](C)N(C)C1=O [C-63] (cyclo(L[NMeL][tBuAla][NMeCha][X22][NMeA][Butanoyl(2R-oxy,4-CN)]))
pIC50 [2]: 5.52

CC(C)C[C@@H]1NC(=O)[C@H](Cc2nc(C(C)(C)C)cs2)N(C)C(=O)[C@H](CC(C)C)NC(=O)[C@H](CC(C)C)N(C)C(=O)[C@H](CC(C)C)NC(=O)[C@@H](CCC#N)OC(=O)[C@H](C)N(C)C1=O [C-68] (HELM PEPTIDE1{L.[meA].[N#CCC[C@@H](O[*:1])C(=O)[*:2]].L.[meL].L.[CN([C@@H](Cc1nc(C(C)(C)C)cs1)C(=O)[*:2])[*:1]]}$PEPTIDE1,PEPTIDE1,1:R1-7:R2$$$V2.0)
pIC50 [2]: 5.98 | pEC50 [3]: 4.95
